Marks after values point to notes of the source that are not given here.
How the values were obtained:
Type in all cases: in vivo
[1] = system: cats; assay: hemodynamics and activity of intact heart in cats under anesthesia; settings: for Cardiac volume, change from basal level / Heart rate, change from basal level / Mean blood flow accelaration (aortic), change from basal level / Mean blood pressure, change from basal level / Stroke volume, change from basal level: cats, 1.0 mg/kg i.v.
Method: The effects of compounds on the hemodynamics and activity of intact heart were studied in cats under anesthesia. The experiments were carried out under conditions of open chest. The phase curve of aortic blood flow was the main index of cardiac activity. The compounds were administered i.v. in physiological solution. The t-Student' test was used to estimate the statistical significance.

[2] = system: Balb/c mice; assay: open-field test, Balb/c mice (passive type of emotional-stress reaction); settings: i.p., screening
Excerpt: The main point of this approach consists in comparative analysis of the behavioural effects of tested compounds in two inbred strains of mice Balb/c and C57B1/6 with different hereditary types of emotional-stress reactions (ESR). The anxiolytic effect was estimated as the activation of the locomotor activity of animals with “passive” type of ESR (Balb/c mice). The main index describing the sedative properties of tested drugs was the inhibition of the locomotor activity of mice with “active” type of ESR (C57B1/6 strain). The anxioselectivity was evaluated according to coincidence of doses range which activated or inhibited the behavior of mice of different strains. Earlier this approach has been successfully used for estimation of anxioselective activity of such known drugs as phenazepam [Seredenin S. B. et al., Bull.Exp.Biol.Med., 1979, v.88, N7, p.38; Seredenin S. B. et al., Ann.Inst.Super.Sanita, 1990, v.26, N1, p.81-88], mexidol [Seredenin S. B. et al., Khimiko-Farmatsevt.Zhurnal, 1987, N2, p.134; Vironina T. A., Seredenin S. B., Ann.Inst.Super.Sanita, 1988, v.24, N3, p.461-466] and gidazepam [Seredenin S. B. et al., in: “Gidazepam” Kiev, Naukova Dumka, 1992, p.92; Seredenin S. B., Blednov Yu. A., Phys.Chem.Biol.Med., 1993, v.1, N1, p.53-60].
Male C57B1/6 and Balb/c mice (“Stolbovaya” animal farm), weighing 20-22 g were used. The animals were housed in a separate animal room in groups of ten and maintained on 12 h light-dark cycle (light from 8.00 till 20.00) with free access to standard food and water during two weeks before experiment. Testing was performed between 9.00 and 13.00. Every used compound was administered intraperitoneally in water solutions 30 min before testing (0,1 ml solution per 10 g of weight). The “open-field” apparatus consisted of cylinder closed from one end, illuminated by four 75 W lamps fixed to the walls 100 cm above the floor. The “open-field” apparatus was 100 cm in diameter and white-painted; the floor was marked with 3 black circles and some radial lines divided the floor into 16 peripheral and 8 central segments. 30 min after injection each animal was placed in the same peripheral square on the floor for 3 min of testing after 1 min exposure in the dark chamber. The following behavior variables were recorded: 1) the number of crossings in the peripheral area (peripheral activity); 2) the number of crossings in the central segments (central activity); 3) the number of rearings (vertical activity); 4) the emotionality was measured as the number of defecations during the test. The sum of all types of locomotor activity was marked as total activity. The t-Student test was used for statistical analysis.

[3] = system: ischemized myocardium of cats; assay: ST-segment elevation during 5 min occlusions of coronary artery (acute coronary deficiency); settings: for change in mean elevation of ST-segment vs control occlusion: cats, 1.0 mg/kg i.v.
Method: These experiments were conducted in cats weighing 2,5-4,0 kg under anasthesia by i.v. injection of nembutal (40 mg/kg) in open chest conditions. Epicardium electrogram in 3-4 leads was registered in “Mingograph-81”. The value of mean elevation of ST-segment during 5 min occlusions of anterior left descending coronary artery with 15 min reperfusions between them was the main index of intensity of reversible ischemized damage of myocardium.
The statistical calculation was carried out with non-parametric Wilcocson method for associated variants.

CCOc1ccc2nc(SCCN(C)C)[nH]c2c1 [VIII]
effect on contractile function of heart, in words ([1]; cats i.v., same doses as bradycardia): slightly enhanced the contractility of myocardium
duration of bradycardia after administration ([1]; cats i.v., VIII 1,0, IX 0,5 and 1,0, XX 1,0 and 2,0 mg/kg): 30 min
effect on heart rate, in words ([1]; cats i.v., VIII 1,0, IX 0,5 and 1,0, XX 1,0 and 2,0 mg/kg, XXIII 1.0, verapamil 0.5 mg/kg): expressed bradycardia
Cardiac volume, change from basal level ([1]; after 2 min): +7.0 ± 2.9%
Heart rate, change from basal level ([1]; after 2 min): −10.9 ± 2.3 %
Mean blood flow accelaration (aortic), change from basal level ([1]; after 2 min): +3.3 ± 2.7%
Mean blood pressure, change from basal level ([1]; after 2 min): −1.8 ± 3.8%
Stroke volume, change from basal level ([1]; after 2 min): +20.6 ± 6.5 %
Cardiac volume, change from basal level ([1]; after 5 min): +6.0 ± 12.8%
Heart rate, change from basal level ([1]; after 5 min): −3.2 ± 1.4%
Mean blood flow accelaration (aortic), change from basal level ([1]; after 5 min): −2.0 ± 9.0%
Mean blood pressure, change from basal level ([1]; after 5 min): −2.8 ± 5.7%
Stroke volume, change from basal level ([1]; after 5 min): +5.6 ± 10.8%
Cardiac volume, change from basal level ([1]; after 10 min): −7.5 ± 9.6%
Heart rate, change from basal level ([1]; after 10 min): −4.4 ± 1.9%
Mean blood flow accelaration (aortic), change from basal level ([1]; after 10 min): −5.2 ± 7.8%
Mean blood pressure, change from basal level ([1]; after 10 min): −7.8 ± 5.7%
Stroke volume, change from basal level ([1]; after 10 min): −3.5 ± 8.7%
Cardiac volume, change from basal level ([1]; after 20 min): −7.2 ± 9.2%
Heart rate, change from basal level ([1]; after 20 min): −3.2 ± 1.8%
Mean blood flow accelaration (aortic), change from basal level ([1]; after 20 min): −6.2 ± 7.6%
Mean blood pressure, change from basal level ([1]; after 20 min): −12.0 ± 5.0%
Stroke volume, change from basal level ([1]; after 20 min): −4.5 ± 8.4%
Cardiac volume, change from basal level ([1]; after 30 min): −2.2 ± 3.0%
Heart rate, change from basal level ([1]; after 30 min): −5.4 ± 3.1%
Mean blood flow accelaration (aortic), change from basal level ([1]; after 30 min): +1.2 ± 2.1%
Mean blood pressure, change from basal level ([1]; after 30 min): −6.5 ± 5.7%
Stroke volume, change from basal level ([1]; after 30 min): +3.5 ± 3.5%
Cardiac volume, change from basal level ([1]; after injection): 38.1 ± 11.6 %
Heart rate, change from basal level ([1]; after injection): −15.3 ± 1.1 %
Mean blood flow accelaration (aortic), change from basal level ([1]; after injection): +31.3 ± 10.8%
Mean blood pressure, change from basal level ([1]; after injection): −14.8 ± 12.5%
Stroke volume, change from basal level ([1]; after injection): 63.2 ± 14.0 %
effect on the behavior (locomotor activity) of Balb/c mice in open-field test, in words [2]: neither activatory nor inhibitory effects
change in mean elevation of ST-segment vs control occlusion ([3]; occlusion 20 min after injection, 30 sec of occlusion): −0.45 mv
change in mean elevation of ST-segment vs control occlusion ([3]; occlusion 20 min after injection, 1 min of occlusion): −0.30 mv
change in mean elevation of ST-segment vs control occlusion ([3]; occlusion 20 min after injection, 2 min of occlusion): −0.50 mv
change in mean elevation of ST-segment vs control occlusion ([3]; occlusion 20 min after injection, 4 min of occlusion): −0.50 mv
change in mean elevation of ST-segment vs control occlusion ([3]; occlusion 20 min after injection, 5 min of occlusion): −0.25 mv
change in mean elevation of ST-segment vs control occlusion ([3]; occlusion 40 min after injection, 15 sec of reperfusion): −0.75 mv
change in mean elevation of ST-segment vs control occlusion ([3]; occlusion 40 min after injection, 30 sec of occlusion): −0.55 mv
change in mean elevation of ST-segment vs control occlusion ([3]; occlusion 40 min after injection, 1 min of occlusion): −0.35 mv
change in mean elevation of ST-segment vs control occlusion ([3]; occlusion 40 min after injection, 2 min of occlusion): −0.40 mv
change in mean elevation of ST-segment vs control occlusion ([3]; occlusion 40 min after injection, 4 min of occlusion): −0.50 mv
change in mean elevation of ST-segment vs control occlusion ([3]; occlusion 40 min after injection, 5 min of occlusion): −0.85 mv
change in mean elevation of ST-segment vs control occlusion ([3]; occlusion immediately after injection, 15 sec of reperfusion): −0.40 mv
change in mean elevation of ST-segment vs control occlusion ([3]; occlusion immediately after injection, 30 sec of occlusion): −1.20* mv
change in mean elevation of ST-segment vs control occlusion ([3]; occlusion immediately after injection, 1 min of occlusion): −0.90* mv
change in mean elevation of ST-segment vs control occlusion ([3]; occlusion immediately after injection, 2 min of occlusion): −1.25* mv
change in mean elevation of ST-segment vs control occlusion ([3]; occlusion immediately after injection, 4 min of occlusion): −0.70 mv
change in mean elevation of ST-segment vs control occlusion ([3]; occlusion immediately after injection, 5 min of occlusion): −0.80 mv
effect on mean elevation of ST-segment during 5 min occlusion, in words ([3]; cats, 1,0 mg/kg i.v.): decreased the mean elevation of ST-segment

Reference: patent US6376666B1 (Nauchno-Issledovatelsky Institut Farmakologii Rossiiskoi …, priority 1994, dated 2002)
